Where “and” joins values, the source holds several entries; their conditions need not be identical. Equal entries are not always repeated. Entries after “also recorded” stand apart in the source; their conditions may differ. Where two headings read alike, the source gives them in different places.
Tests used:
poliovirus = assay type: cell-based, poliovirus strain P1 Mahoney
Vero cells = experiment: Cytotoxic effect on Vero cell monolayers
HSV-1 = experiment: Accumulation of virus-specified proteins (Western blot); assay type: cell-based, HSV-1 Glasgow strain 17
Description: Protein preparation and western blot analysis were performed as previously described (54). Briefly, at the indicated times the infected cells were collected by centrifugation, resuspended in 1.5×SDS-PAGE sample buffer, and boiled for 10 min. The proteins were separated by SDS-PAGE and electrophorectically transferred to nitrocellulose membranes. Immunodetection of proteins was performed using the following antibodies: ICP0, rabbit polyclonal antibody CLU7 (54); ICP27, rabbit polyclonal antibody CLU38 (54); glycoprotein B (gB), rabbit polyclonal antibody R69 (provided by T. Kristie, National Institute of Allergy and Infectious Diseases) [Zhang, et al. 1991]; and _TIF, rabbit polyclonal antibody anti-VP16 (Clontech Laboratories Inc., Palo Alto, Calif.). The secondary antibodies used were goat anti-rabbit and goat anti-mouse IgG conjugated to horseradish peroxidase (Kirkegaard and Perry Laboratories, Inc., Gaithersburg, Md.). Immunoblots were developed as previously described (55).
Accumulation of Virus-Specified Proteins in the Presence of Drug. Failure to efficiently replicate virus DNA could result from a specific block of replication per se or because virus-specified gene expression is affected by drug. To address this issue cells were infected with HSV-1 at an moi of 5, 50 μg/ml of drug was either added at time 0, 1 hr pi or not added and at intervals post infection the infected cells were harvested and proteins were extracted and assayed for the presence of virus specified polypeptides by Western blot. […] The residual reactivity with ∝-TIF in the sample treated at T=0 results from protein associated with the infecting virions. There is no increase in the accumulation of this protein during the course of infection. It is not possible to exclude the possibility that virus never enters these cells and that the ∝-TIF that is detected results from cell associated virus.

influenza virus = experiment: Influenza virus plaque assay on MDCK cells; assay type: cell-based, influenza virus strain PR8; details: magnitude not quantifiable
VZV = VZV plaque formation; assay type: cell-based; details: data not shown

CC(/C=C(/C)[O-])=NCCN=C(C)/C=C(/C)[O-].Cc1ncc[nH]1.Cc1ncc[nH]1.[Br-].[Co+3] [CTC-96]
% Inhibition (poliovirus; Poliovirus (P1/Mahoney), HeLa, 50 μg/ml of CTC-96, plaque assay): 40%
inhibition of poliovirus (poliovirus; first run, 50 μg/ml): 42%
plaques recovered relative to −CTC-96 (poliovirus; first run, 50 μg/ml): 58%
poliovirus plaques (poliovirus; first run, dilution −6, 50 μg/ml in diluent, no drug in overlay): 91 and 80
poliovirus plaques (poliovirus; first run, dilution −7, 50 μg/ml in diluent, no drug in overlay): 10 and 9
poliovirus plaques (poliovirus; first run, dilution −8, 50 μg/ml in diluent, no drug in overlay): 0
inhibition of poliovirus (poliovirus; second run, 50 μg/ml): 42% inhibition
poliovirus plaques (poliovirus; second run, dilution −6, 50 μg/ml, drug also in overlay): 165
poliovirus plaques (poliovirus; second run, dilution −7, 50 μg/ml, drug also in overlay): 18 and 16
effect on the cell monolayer (Vero cells; 50 μg/ml, after two days of incubation): severely affected
cytotoxicity on Vero cell monolayers (Vero cells; prolonged exposure (several days) to 50 μg/ml): cytotoxic effects; also recorded: cytotoxicity
accumulation of virus-specified proteins (HSV-1; 50 μg/ml added 1 hr pi / after initiation of infection): only a small effect; also recorded: little or no effect
accumulation of gB (early) and α-TIF (late) (HSV-1; 50 μg/ml added at time 0): no measurable accumulation
synthesis of ICP0 and ICP27 (immediate early) (HSV-1; 50 μg/ml added at time 0): little if any synthesis
accumulation of virus proteins of all kinetic classes (HSV-1; 50 μg/ml present from the initiation of infection): prevented the accumulation of gene products from all kinetic classes; also recorded: prevents synthesis of all kinetic classes of virus proteins
effect on influenza virus infection (influenza virus): positive virus inhibitory effect; also recorded: effective against influenza virus infection
VZV plaque formation (VZV): inhibition of VZV plaque formation
